Source: patent US20100333217A1, “SCREENING METHOD FOR THE COMPOSITION FOR PREVENTION OR TREATMENT OF OSTEOPOROSIS AND METABOLIC BONE DISEASE USING TALLYHO/JNGJ MOUSE” (KOREA RESERACH INSTITUTE OF CHEMICAL TECHNOLOGY, priority 2007, published 2010)

Key:
male TH mice [1] = test: Micro-CT bone mineral density, bone mineral content and skull thickness in drug-treated male TH mice; assay type: in vivo, mouse
Method: Control mice (C57BL/6) and TH mice were freely fed, and their bone mineral densities were measured every week from 4 week age to 20 week age after delectation. The mice were anesthetized with Avertin (2,2,2-tribromoethanol) to keep them alive while measuring their bone mineral densities. […] Thereafter, the resulting images were reformed using Microview (GE Healthcare, USA) to obtain the final bone mineral density (BMD) and the final bone mineral content (BMC) (see FIG. 2).
Control mice (C57BL/6) and TH mice were fed freely. […] Thereafter, the bone thicknesses and the bone mineral densities of the extracted skulls were measured as described in Example 2, using a tomographic apparatus (micro-CT) for animals.
8-week-old male TH mice were orally administered with parathyroid hormone (hPTH(1-34), Sigma, USA), which is started to be used as an osteoporosis medicine increasing the bone mineral content, with a concentration of 50 μg/kg, once a day for 4 weeks.

male TH mice [2] = conditions: oral 5 mg/kg once a day for 4 weeks, femur of 8-week-old mouse, micro-CT (FIG. 19)
Method: Thereafter, the bone mineral density and the bone mineral content of the femur and the thickness and the bone mineral density of the skull were measured as described in Examples 2 and 3. […] The TH mice and B6 mice were sacrificed with carbon dioxide. The femurs thereof were extracted and scanned 400 times with a thickness of […] using eXplore Locus micro-CT (GE Healthcare, USA) which is devised as a tomographic apparatus for small animals. The scanned images were accurately reformed using Microview (GE Healthcare, USA) to obtain final histomorphological images of the femurs.

IL-6 = conditions: male TH mice, oral 5 mg/kg once a day for 4 weeks; ELISA (FIG. 20)
Method: (§1) Thereafter, the bone mineral density and the bone mineral content of the femur and the thickness and the bone mineral density of the skull were measured as described in Examples 2 and 3.
Meanwhile, after separating the blood serum, IL-6 level was measured using ELISA Kit (ALPCO diagnostics, USA).

OPG = conditions: cells separated from bone marrow of treated TH mice and cultured, RT-PCR; vs vehicle (FIG. 21)
Method: (§2) After separating mRNA from the cell of FIG. 4, the expression levels of the genes related to the differentiation of osteoblast and osteoclast and cytokines were analyzed. The total RNA was obtained from the Extraction Kit (Intron, Seongnam, Korea) according to the manufacturer's protocol. The separated RNA was weighed by measuring the absorbance. The reverse transcription PCR (RT-PCR) was performed using primers listed in Table 1 under the following conditions to examine the expression level of each of the genes.
(§3) Reverse Transcription System (Promega, USA) was added with total RNA 1 μg, 10 mM dNTP 2 μl, 100 pmole Oligo dT 1 μl, 10×buffer 2 μl, 25 mM MgCl2 4 μl, RNase inhibitor 0.2 μl, AMV RTase 0.2 μl, and DEPC-treated water, and cultured at 42° C. for 60 minutes and at 72° C. for 10 minutes to prepare cDNA. Then, the reverse transcripted cDNA sample was amplified using primer pairs specific to respective target genes. The PCR was repeated 25-30 times after denaturation at 95° C. for 5 minutes. In specific, the PCR was performed under the condition of denaturation at 95° C. for 30 seconds, primer annealing at 55° C. (NPY1receptor), 56° C.
as §1

RANKL = conditions: cells separated from bone marrow of treated TH mice and cultured, RT-PCR; vs vehicle (FIG. 21)
Method: as §2, §3, §1

Compound: NCCCC(O)(P(=O)(O)O)P(=O)(O)O [alendronate]
- bone mineral contents in the femurs (male TH mice [1]; 4-week-old male TH mice, oral 5 mg/kg once a day for 4 weeks, vs 8-week-old TH mice treated with vehicle only (FIG. 16)): significantly recovered
- thicknesses of the skulls (male TH mice [1]; 4-week-old male TH mice, oral 5 mg/kg once a day for 4 weeks, vs TH mice vehicle (FIG. 17)): significantly recovered
- histomorphological images of the femurs (recovering the bone loss) (male TH mice [2]): filled with trabeculars
- IL-6 level in blood serum (IL-6): low IL-6 level
- OPG gene expression (OPG): increased
- RANKL gene expression (RANKL): decreased

Compound: parathyroid hormone (hPTH(1-34) (SVSEIQLMHNLGKHLNSMERVEWLRKKLQDVHNF; Parathyroid hormone; UniProt P01270 32-65, looked up, fragment) [parathyroid hormone hPTH(1-34), Sigma; osteoporosis medicine increasing the bone mineral content]
- bone mineral densities (male TH mice [1]; 8-week-old male TH mice, 50 μg/kg once a day for 4 weeks, orally administered (so in the source), femur, vs 12-week-old TH mice treated with vehicle only (FIG. 22)): significantly recovered
- bone mineral contents (male TH mice [1]; 8-week-old male TH mice, 50 μg/kg once a day for 4 weeks, orally administered (so in the source), femur, vs 12-week-old TH mice treated with vehicle only (FIG. 23)): significantly recovered
